In brackets after ≈: the same amount, converted by molar mass.
What was measured:
[1] = Compound solubility in water; format: physicochemical
[2] = biological target: T1, glucocerebrosidase (Gcase) (Homo sapiens, UniProt P04062); experiment: Glucocerebrosidase (Gcase) activation assay, 4-methylumbelliferyl-beta-D-glucopyranoside substrate, with saposin C; format: biochemical; conditions: 0.25 h; for activation at 0.1 µM: read-out: Percent Gcase Activation 0.1 μM Test Compound; for activation at 1 µM: read-out: Percent Gcase Activation 1 μM Test Compound
T1 construct: micellar solution containing 10 nM GCase and 100 nM saposin C
T1 sequence (P04062 40-536): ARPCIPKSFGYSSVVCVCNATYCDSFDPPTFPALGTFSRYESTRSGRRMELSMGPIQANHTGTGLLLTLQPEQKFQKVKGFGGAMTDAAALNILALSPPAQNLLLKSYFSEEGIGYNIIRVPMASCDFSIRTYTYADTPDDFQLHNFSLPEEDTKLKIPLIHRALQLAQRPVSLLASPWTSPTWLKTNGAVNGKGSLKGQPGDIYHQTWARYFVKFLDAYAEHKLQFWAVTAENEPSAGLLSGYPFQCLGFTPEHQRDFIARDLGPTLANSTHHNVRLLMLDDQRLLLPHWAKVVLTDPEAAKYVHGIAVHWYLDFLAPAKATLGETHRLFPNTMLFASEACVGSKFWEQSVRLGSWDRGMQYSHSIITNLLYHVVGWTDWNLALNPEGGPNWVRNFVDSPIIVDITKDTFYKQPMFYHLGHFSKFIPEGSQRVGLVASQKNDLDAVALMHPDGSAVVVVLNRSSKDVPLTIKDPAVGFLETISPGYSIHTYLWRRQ
Summary of the method: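 Human GCase (10 nM) with 100 nM saposin C in Triton X-100/phosphatidylserine micelles, citrate-phosphate pH 4.7, preincubated with compound 30 min RT; 2 mM 4-MU-β-glucoside (substrate solution) added, 15 min RT, stopped with glycine pH 12.5, fluorescence 365/440 nm. Screened at 1.0 and 0.1 μM; 8-point curves from 5 μM top.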

Structure (SMILES) | solubility [1] [µg/mL] | activation at 0.1 µM [2] [%] | activation at 1 µM [2] [%]
CCCCCCOC1CCC(NC(=O)c2ncc3c(C)cc(C)nn23)CC1 (centres unmarked) | 23.1 (≈ 62 µM) | 5 to 20 | > 20
Cc1cc(-c2cccnc2)nc2c(C(=O)NC(C)(C)C3CC3)nsc12 | 0.7 (≈ 1.99 µM) | < 5 | 5 to 20
Cc1cc(-c2cncc(Cl)c2)nn2c(C(=O)N[C@@H](C3CC3)C(F)(F)F)ncc12 [(S)-2-(5-Chloropyridin-3-yl)-N-(1-cyclopropyl-2,2,2-trifluoroethyl)-4-methylimidazo[1,5-b]pyridazine-7-carboxamide] | – | 5 to 20 | > 20
Cc1cc(-c2cccc3ncoc23)nn2c(C(=O)NC(C)C(F)(F)F)cnc12 (centres unmarked) | – | < 5 | > 20
Cc1cc(-c2ccns2)nn2c(C(=O)NC(C3CC3)C(F)(F)F)cnc12 (centres unmarked) | – | 5 to 20 | > 20
Cc1ccc(-c2cc(C)c3ncc(C(=O)N[C@@H](C4CC4)C(F)(F)F)n3n2)cn1 [(S)-6-(6-Methylpyridin-3-yl)-N-(1-cyclopropyl-2,2,2-trifluoroethyl)-8-methylimidazo[1,2-b]pyridazine-3-carboxamide] | – | < 5 | > 20
Cc1cc(-c2ccccc2C#N)nn2c(C(=O)NC(C3CC3)C(F)(F)F)cnc12 (centres unmarked) | – | 5 to 20 | > 20
C#Cc1ccc(NC(=O)c2cnc3ccc(Cl)nn23)cc1 | – | 5 to 20 | 5 to 20
Cc1cc(-c2ccc(F)cc2)nn2c(C(=O)NC(C)(C)C3CC3)cnc12 | – | 5 to 20 | > 20
O=C(NC1CCCc2ccccc21)c1cnc2ccc(Cl)nn12 (centres unmarked) | – | < 5 | 5 to 20
Cc1nc2cc(-c3cc(C)c4ncc(C(=O)NC(C)C(F)(F)F)n4n3)ccc2o1 (centres unmarked) | – | 5 to 20 | > 20
Cc1cc(-c2ccc3c(c2)ncn3C)nn2c(C(=O)N[C@@H](C3CC3)C(F)(F)F)cnc12 | – | 5 to 20 | > 20
Cc1cc(C)c2occ(C(=O)NC3CCCc4ccccc43)c2n1 (centres unmarked) [5,7-Dimethyl-N-(1,2,3,4-tetrahydronaphthalen-1-yl)furo[3,2-b]pyridine-3-carboxamide] | – | > 20 | > 20
Cc1cc(N2CCCC(F)(F)C2)nn2c(C(=O)N[C@H](C3CC3)C(F)(F)F)cnc12 | – | > 20 | > 20
Cc1cc(C)c2ncc(C(=O)NC3(C)CCCc4ccccc43)n2n1 (centres unmarked) | – | 5 to 20 | > 20
Cc1cc(-c2ccns2)nn2c(C(=O)NC(C)(C)C3CC3)cnc12 | – | 5 to 20 | > 20
Cc1cc(C)c2snc(C(=O)NC3CCCc4ccccc43)c2n1 (centres unmarked) [5,7-Dimethyl-N-(1,2,3,4-tetrahydronaphthalen-1-yl)isothiazolo[4,5-b]pyridine-3-carboxamide] | – | > 20 | > 20
Cc1cc(-c2ccc(F)cc2)nn2c(C(=O)NC(C3CC3)C(F)(F)F)ncc12 (centres unmarked) | – | > 20 | > 20
Cc1cc(C)c2cnc(C(=O)NC(C3CC3)C(F)(F)F)n2n1 (centres unmarked) | – | < 5 | > 20
Cc1cc(C)c2cnc(C(=O)NC(C)(C)C3CC3)n2n1 | – | < 5 | > 20
COc1cccc(-c2cc(C)c3snc(C(=O)N[C@@H](C)C4CC4)c3n2)n1 | – | < 5 | 5 to 20
Cc1cc(-c2cccc(F)c2)nn2c(C(=O)NC(C)(C)C3CC3)ncc12 | – | > 20 | > 20
Cc1cc(-c2cccc(Cl)n2)nn2c(C(=O)NC(C)C(F)(F)F)cnc12 (centres unmarked) | – | 5 to 20 | > 20
Cc1cc(-c2cccc3ncoc23)nn2c(C(=O)NC(C3CC3)C(F)(F)F)cnc12 (centres unmarked) | – | 5 to 20 | > 20
CCC(NC(=O)c1cnc2ccc(Cl)nn12)c1ccccc1 (centres unmarked) | – | < 5 | < 5
Cc1cc(-c2ccc(F)cc2C#N)nn2c(C(=O)N[C@H](C)C3CC3)cnc12 | – | < 5 | > 20
Cc1cc(C)c2cnc(C(=O)Nc3ccc(-c4cocn4)cc3)n2n1 | – | < 5 | > 20
Cc1cc(-c2ccc(F)cc2C#N)nn2c(C(=O)NC(C)C(F)(F)F)cnc12 (centres unmarked) | – | 5 to 20 | > 20
Cc1cc(-c2ccc(C#N)o2)nn2c(C(=O)N[C@@H](C3CC3)C(F)(F)F)cnc12 | – | > 20 | > 20
Cc1cc(N2CCN(C(C)C)C2=O)nn2c(C(=O)N[C@@H](C3CC3)C(F)(F)F)ncc12 [(S)—N-(1-Cyclopropyl-2,2,2-trifluoroethyl)-2-(3-isopropyl-2-oxoimidazolidin-1-yl)-4-methylimidazo[1,5-b]pyridazine-7-carboxamide] | – | 5 to 20 | > 20
